Experimental findings from patent US20260250290A1 (BRISTOL-MYERS SQUIBB COMPANY, priority 2023, published 2026) are described below.

In this test the target is T1, full length SGK1 (Homo sapiens, UniProt O00141).
T1 construct: 125 μM full length SGK1 (Life Technologies Part #PR7358A); purchased Life Technologies PR7358A
T1 sequence (O00141 1-431): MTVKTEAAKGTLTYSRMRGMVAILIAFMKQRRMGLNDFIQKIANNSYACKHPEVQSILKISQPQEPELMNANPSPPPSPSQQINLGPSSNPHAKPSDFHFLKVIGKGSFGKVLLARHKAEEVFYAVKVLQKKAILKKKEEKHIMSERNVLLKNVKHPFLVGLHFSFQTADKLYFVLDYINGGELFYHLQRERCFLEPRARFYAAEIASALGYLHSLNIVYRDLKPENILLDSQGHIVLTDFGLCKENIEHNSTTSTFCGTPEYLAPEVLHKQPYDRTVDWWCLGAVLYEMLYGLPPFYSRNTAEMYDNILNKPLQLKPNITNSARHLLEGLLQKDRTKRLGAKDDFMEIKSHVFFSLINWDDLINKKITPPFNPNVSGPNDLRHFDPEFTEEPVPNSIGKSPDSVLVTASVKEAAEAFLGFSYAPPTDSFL
As to the kind of experiment: SGK1 inhibition Assay A (Caliper LabChip electrophoretic separation of fluorescent peptide substrate and phosphorylated product). Format: biochemical. As to conditions: Assay A; 20 μM ATP, 40 min incubation; read-out: SGK1 IC50.

Molecules are shown by their SMILES.

A word on the IC50: it is the concentration that gives 50% inhibition. For the compound `CC(C)(C)OC(=O)N1CC=C(c2ccc(C(=O)N[C@@H]3CCCN(c4cc(-c5ccnc(C(F)F)c5)n5ncnc(N)c45)C3)s2)C1` [Example 546, tert-butyl (R)-3-(5-((1-(4-amino-7-(2-(difluoromethyl)pyridin-4-yl)pyrrolo[2,1-f][1,2,4]triazin-5-yl)piperidin-3-yl)carbamoyl)thiophen-2-yl)-2,5-dihydro-1H-pyrrole-1-carboxylate], the IC50 is 29 nM.

With `CC(=O)N1CC=C(c2cc(N3CCC[C@@H](NC(=O)c4ccc(-c5cncnc5)s4)C3)c3c(N)ncnn23)C1` [Example 548, (R)-N-(1-(7-(1-acetyl-2,5-dihydro-1H-pyrrol-3-yl)-4-aminopyrrolo[2,1-f][1,2,4]triazin-5-yl)piperidin-3-yl)-5-(pyrimidin-5-yl)thiophene-2-carboxamide], the IC50 amounted to 90 nM.

For `CC(=O)N1CC=C(c2cc(N3CCC[C@@H](NC(=O)c4ccc(-c5cn[nH]c5)s4)C3)c3c(N)ncnn23)C1` [Example 550, (R)-N-(1-(7-(1-acetyl-2,5-dihydro-1H-pyrrol-3-yl)-4-aminopyrrolo[2,1-f][1,2,4]triazin-5-yl)piperidin-3-yl)-5-(1H-pyrazol-4-yl)thiophene-2-carboxamide], the IC50 was determined as 8 nM. Turning to `CC(=O)N1CC=C(c2cc(N3CCC[C@@H](NC(=O)c4ccc(-c5cncc(C#N)c5)s4)C3)c3c(N)ncnn23)C1` [Example 551, (R)-N-(1-(7-(1-acetyl-2,5-dihydro-1H-pyrrol-3-yl)-4-aminopyrrolo[2,1-f][1,2,4]triazin-5-yl)piperidin-3-yl)-5-(5-cyanopyridin-3-yl)thiophene-2-carboxamide], the IC50 worked out at 6 nM.

For the compound `CC(=O)N1CC=C(c2cc(N3CCC[C@@H](NC(=O)c4ccc(-c5cnc(C#N)nc5)s4)C3)c3c(N)ncnn23)C1` [Example 552, (R)-N-(1-(7-(1-acetyl-2,5-dihydro-1H-pyrrol-3-yl)-4-aminopyrrolo[2,1-f][1,2,4]triazin-5-yl)piperidin-3-yl)-5-(2-cyanopyrimidin-5-yl)thiophene-2-carboxamide], the IC50 turned out to be 27 nM.

Regarding `Nc1ncnn2c(-c3ccnc(C(F)F)c3)cc(N3CCC[C@@H](NC(=O)c4ccc(C5=CCNCC5)s4)C3)c12` [Example 553, (R)-N-(1-(4-amino-7-(2-(difluoromethyl)pyridin-4-yl)pyrrolo[2,1-f][1,2,4]triazin-5-yl)piperidin-3-yl)-5-(1,2,3,6-tetrahydropyridin-4-yl)thiophene-2-carboxamide], the IC50 came out at 16 nM. `CC(=O)N1CC=C(c2cc(N3CCC[C@@H](NC(=O)c4sc(-c5ccnc(C(F)F)c5)cc4OCCN(C)C)C3)c3c(N)ncnn23)C1` [Example 555, (R)-N-(1-(7-(1-acetyl-2,5-dihydro-1H-pyrrol-3-yl)-4-aminopyrrolo[2,1-f][1,2,4]triazin-5-yl)piperidin-3-yl)-5-(2-(difluoromethyl)pyridin-4-yl)-3-(2-(dimethylamino)ethoxy)thiophene-2-carboxamide]: the IC50 was determined as 7 nM. For the compound `CC(=O)N1CC=C(c2cc(N3CCC[C@@H](NC(=O)c4sc(-c5ccnc(F)c5)cc4OCCN(C)C)C3)c3c(N)ncnn23)C1` [Example 556, (R)-N-(1-(7-(1-acetyl-2,5-dihydro-1H-pyrrol-3-yl)-4-aminopyrrolo[2,1-f][1,2,4]triazin-5-yl)piperidin-3-yl)-3-(2-(dimethylamino)ethoxy)-5-(2-fluoropyridin-4-yl)thiophene-2-carboxamide], the IC50 worked out at 6 nM. To `COC(=O)N1CC=C(c2cc(N3CCC[C@@H](NC(=O)c4sc(Cl)cc4OC4CCNCC4)C3)c3c(N)ncnn23)C1` [Example 561] belongs 2 nM; to `COC(=O)N1CC=C(c2cc(N3CCC[C@@H](NC(=O)c4sc(Cl)cc4OC4CCN(C)CC4)C3)c3c(N)ncnn23)C1` [Example 562, methyl (R)-3-(4-amino-5-(3-(5-chloro-3-((1-methylpiperidin-4-yl)oxy)thiophene-2-carboxamido)piperidin-1-yl)pyrrolo[2,1-f][1,2,4]triazin-7-yl)-2,5-dihydro-1H-pyrrole-1-carboxylate], 2 nM. For `COC(=O)N1CC=C(c2cc(N3CCC[C@@H](NC(=O)c4sc(Cl)cc4OC4CCN(C(C)C)CC4)C3)c3c(N)ncnn23)C1` [Example 563, methyl (R)-3-(4-amino-5-(3-(5-chloro-3-((1-isopropylpiperidin-4-yl)oxy)thiophene-2-carboxamido)piperidin-1-yl)pyrrolo[2,1-f][1,2,4]triazin-7-yl)-2,5-dihydro-1H-pyrrole-1-carboxylate], the IC50 was 3 nM. With `COC(=O)N1CC=C(c2cc(N3CCC[C@@H](NC(=O)c4sc(Cl)cc4OC4CCN(CCO)CC4)C3)c3c(N)ncnn23)C1` [Example 564, methyl (R)-3-(4-amino-5-(3-(5-chloro-3-((1-(2-hydroxyethyl)piperidin-4-yl)oxy)thiophene-2-carboxamido)piperidin-1-yl)pyrrolo[2,1-f][1,2,4]triazin-7-yl)-2,5-dihydro-1H-pyrrole-1-carboxylate], the IC50 was 2 nM.

For `COC(=O)N1CC=C(c2cc(N3CCC[C@@H](NC(=O)c4sc(Cl)cc4OC4CCN(C(C)=O)CC4)C3)c3c(N)ncnn23)C1` [Example 565, methyl (R)-3-(5-(3-(3-((1-acetylpiperidin-4-yl)oxy)-5-chlorothiophene-2-carboxamido)piperidin-1-yl)-4-aminopyrrolo[2,1-f][1,2,4]triazin-7-yl)-2,5-dihydro-1H-pyrrole-1-carboxylate], the IC50 was determined as 3 nM. As for `COC(=O)N1CC=C(c2cc(N3CCC[C@@H](NC(=O)c4sc(Cl)cc4OC4CCN(CC(F)F)CC4)C3)c3c(N)ncnn23)C1` [Example 566, methyl (R)-3-(4-amino-5-(3-(5-chloro-3-((1-(2,2-difluoroethyl)piperidin-4-yl)oxy)thiophene-2-carboxamido)piperidin-1-yl)pyrrolo[2,1-f][1,2,4]triazin-7-yl)-2,5-dihydro-1H-pyrrole-1-carboxylate], the IC50 stood at 12 nM. With `COC(=O)N1CC=C(c2cc(N3CCC[C@@H](NC(=O)c4sc(Cl)cc4OC4COC4)C3)c3c(N)ncnn23)C1` [Example 567, Methyl (R)-3-(4-amino-5-(3-(5-chloro-3-(oxetan-3-yloxy)thiophene-2-carboxamido)piperidin-1-yl)pyrrolo[2,1-f][1,2,4]triazin-7-yl)-2,5-dihydro-1H-pyrrole-1-carboxylate], the IC50 came out at 4 nM. Regarding `COC(=O)N1CC=C(c2cc(N3CCC[C@@H](NC(=O)c4sc(Cl)cc4OC4CNC4)C3)c3c(N)ncnn23)C1` [Example 568, Methyl (R)-3-(4-amino-5-(3-(3-(azetidin-3-yloxy)-5-chlorothiophene-2-carboxamido)piperidin-1-yl)pyrrolo[2,1-f][1,2,4]triazin-7-yl)-2,5-dihydro-1H-pyrrole-1-carboxylate], the 50% inhibitory concentration (IC50) worked out at 5 nM. In the case of `COC(=O)N1CC=C(c2cc(N3CCC[C@@H](NC(=O)c4sc(Cl)cc4OC4CCNC4)C3)c3c(N)ncnn23)C1` (stereo partly drawn) [Example 569, Methyl 3-(4-amino-5-((3R)-3-(5-chloro-3-(pyrrolidin-3-yloxy)thiophene-2-carboxamido)piperidin-1-yl)pyrrolo[2,1-f][1,2,4]triazin-7-yl)-2,5-dihydro-1H-pyrrole-1-carboxylate], the IC50 was 3 nM.
